Assay results reported in patent publication US9723842B2, “Isothiazolinone biocides enhanced by zinc ions” (ARCH CHEMICALS, INC., priority 2006, dated 2017).
Like-named read-outs stand apart in the source and are kept apart here.

Test system: Ps. aeruginosa
Assay: Minimum inhibitory concentration against mono-cultures (microtitre plate, doubling dilutions)
Type: cell-based, Pseudomonas aeruginosa (NCIB 10421)
Details: for MIC: Pseudomonas aeruginosa
Description: Pseudomonas aeruginosa (NCIB 10421) maintained on nutrient agar, were used to study the synergy between BIT and ZnCl2. Bacteria were grown to stationary phase (approximately 24 hours) in nutrient broth (approximately 10^9 organisms per ml). A 0.1% (v/v) inoculum was used to seed fresh medium and 100 μl of the inoculum was then added to each well of a microtitre plate, except for the first well which contained 200 μl. Using doubling dilutions, the concentration of the compounds under investigation were varied in each well along the ordinate axis. The presence or absence of growth was recorded by visual inspection after 24 hours incubation at 37° C. Bacteria were grown to stationary phase (approximately 24 hours) in nutrient broth (approximately 10^9 organisms per ml). A 0.1% (v/v) inoculum was used to seed fresh medium and 100 μl of the inoculum was then added to each well of a microtitre plate, except for the first well which contained 200 μl. Using doubling dilutions, the concentration of the compounds under investigation were varied in each well along the ordinate axis. The presence or absence of growth was recorded by visual inspection after 24 hours incubation at 37° C.

[1] = Comparative Example A, Table 10

Compound | MIC (ppm) against Ps. aeruginosa [1] | MIC (ppm) against Ps. aeruginosa (Example 2, Table 2, column 1) [ppm] | MIC (ppm) against Ps. aeruginosa (Example 2, Table 2, column 2) [ppm] | MIC (ppm) against Ps. aeruginosa (Example 2, Table 2, column 3) [ppm] | MIC (ppm) against Ps. aeruginosa (Example 2, Table 2, column 4) [ppm] | MIC (ppm) against Ps. aeruginosa (Example 5, Table 8, column 1) [ppm] | MIC (ppm) against Ps. aeruginosa (Example 5, Table 8, column 2) [ppm] | MIC (ppm) against Ps. aeruginosa (Example 5, Table 8, column 3) [ppm] | MIC (ppm) against Ps. aeruginosa (Example 5, Table 8, column 4) [ppm] | also measured
Cn1sccc1=O [MIT, 2-methyl-4-isothiazolin-3-one] | – | – | – | – | – | – | – | – | – | MIC (read-out: MIC (ppm) against Ps. aeruginosa, Example 4, Table 6, column 1): 9 µg/mL; MIC (read-out: MIC (ppm) against Ps. aeruginosa, Example 4, Table 6, column 2): 6 µg/mL; MIC (read-out: MIC (ppm) against Ps. aeruginosa, Example 4, Table 6, column 3): 10.5 µg/mL; MIC (read-out: MIC (ppm) against Ps. aeruginosa, Example 4, Table 6, column 4): 8 µg/mL
O=c1[nH]sc2ccccc12 [BIT, 1,2-benzisothiazolin-3-one] | 30 ppm | 30 | 42 | 42 | 30 | – | – | – | – | –
[Cl-].[Na+] [NaCl2, Sodium Chloride] | None detected (greater than 675) ppm | – | – | – | – | – | – | – | – | –
CCCCn1sc2ccccc2c1=O [BBIT, N-(n-butyl)-1,2-benzisothiazolin-3-one] | – | – | – | – | – | 315 | 360 | 42 | 180 | –
[Cl-].[Cl-].[Zn+2] [ZnCl2, zinc chloride] | – | 300 | 450 | 375 | 450 | 525 | 525 | 600 | 600 | MIC (ppm) against Ps. aeruginosa (Example 3, Table 4, column 1): 294 ppm; MIC (ppm) against Ps. aeruginosa (Example 3, Table 4, column 2): 294 ppm; MIC (ppm) against Ps. aeruginosa (Example 3, Table 4, column 3): 210 ppm; MIC (ppm) against Ps. aeruginosa (Example 3, Table 4, column 4): 600 ppm; MIC (ppm) against Ps. aeruginosa (Example 4, Table 6, column 1): 210 ppm; MIC (ppm) against Ps. aeruginosa (Example 4, Table 6, column 2): 210 ppm; MIC (ppm) against Ps. aeruginosa (Example 4, Table 6, column 3): 450 ppm; MIC (ppm) against Ps. aeruginosa (Example 4, Table 6, column 4): 450 ppm
